Assay results published in ChEMBL document CHEMBL1141793, “Antioxidant constituents of the aerial parts of Globularia alypum growing in Morocco” (J Nat Prod, 2005).

System: Radical scavenging activity
Assay: Antioxidant activity assessed as DPPH free radical scavenging activity after 30 mins by spectrophotometric assay

IC50 | SMILES
11 µM | O=c1cc(-c2ccc(O)c(O)c2)oc2cc(O[C@@H]3O[C@H](CO)[C@@H](O)[C@H](O)[C@H]3O)c(O)c(O)c12
18 µM | O=C(/C=C/c1ccc(O)cc1)OC[C@H]1O[C@@H](OCCc2ccc(O)c(O)c2)[C@H](O)[C@@H](O)[C@@H]1O
8 µM | O=c1cc(-c2ccc(O)c(O)c2)oc2cc(O[C@@H]3O[C@H](CO)[C@@H](O)[C@H](O[C@@H]4O[C@H](CO)[C@@H](O)[C@H](O)[C@H]4O)[C@H]3O)c(O)c(O)c12
12 µM | O=C1C[C@@H](c2ccc(O)c(O)c2)Oc2cc(O[C@@H]3O[C@H](CO)[C@@H](O)[C@H](O)[C@H]3O[C@@H]3O[C@H](CO)[C@@H](O)[C@H](O)[C@H]3O)cc(O)c21
12 µM | O=c1cc(-c2ccc(O)c(O)c2)oc2cc(O[C@@H]3O[C@H](CO)[C@@H](O)[C@H](O)[C@H]3O[C@@H]3O[C@H](CO)[C@@H](O)[C@H](O)[C@H]3O)cc(O)c12
20 µM | C[C@@H]1O[C@@H](O[C@@H]2[C@@H](O)[C@H](OCCc3ccc(O)c(O)c3)O[C@H](CO)[C@H]2OC(=O)/C=C/c2ccc(O)c(O)c2)[C@H](O)[C@H](O)[C@H]1O [ACETOSIDE]
40 µM | Cc1cc(C(C)(C)C)c(O)c(C(C)(C)C)c1 [BUTYLATED HYDROXYTOLUENE]
21 µM | C[C@@H]1O[C@@H](OC[C@H]2O[C@@H](OCCc3ccc(O)c(O)c3)[C@H](O)[C@@H](O)[C@@H]2OC(=O)/C=C/c2ccc(O)c(O)c2)[C@H](O)[C@H](O)[C@H]1O [FORSYTHIASIDE]
20 µM | C[C@@H]1O[C@@H](O[C@@H]2[C@@H](O)[C@H](OCCc3ccc(O)c(O)c3)O[C@H](COC(=O)/C=C/c3ccc(O)c(O)c3)[C@H]2O)[C@H](O)[C@H](O)[C@H]1O [ISOACTEOSIDE]
